Experimental data from ChEMBL document CHEMBL1146704, “(2-amino-phenyl)-amides of omega-substituted alkanoic acids as new histone deacetylase inhibitors” (Bioorg Med Chem Lett, 2004).
Activity calls are given as the source filed them. No cut-off for these calls is given here.

How the values were obtained:
[1] = test system: HCT-116; assay: In vitro antiproliferative activity against human cancer cell line HCT116 using MTT assay; assay type: functional, cell-based
[2] = biological target: Histone deacetylase; assay: Effect on induced hyperacetylation of histones in whole cells; assay type: functional, cell-based, Homo sapiens
[3] = biological target: Histone deacetylase 1 (Homo sapiens, UniProt Q13547)
Sequence of Histone deacetylase 1 (Q13547 whole entry): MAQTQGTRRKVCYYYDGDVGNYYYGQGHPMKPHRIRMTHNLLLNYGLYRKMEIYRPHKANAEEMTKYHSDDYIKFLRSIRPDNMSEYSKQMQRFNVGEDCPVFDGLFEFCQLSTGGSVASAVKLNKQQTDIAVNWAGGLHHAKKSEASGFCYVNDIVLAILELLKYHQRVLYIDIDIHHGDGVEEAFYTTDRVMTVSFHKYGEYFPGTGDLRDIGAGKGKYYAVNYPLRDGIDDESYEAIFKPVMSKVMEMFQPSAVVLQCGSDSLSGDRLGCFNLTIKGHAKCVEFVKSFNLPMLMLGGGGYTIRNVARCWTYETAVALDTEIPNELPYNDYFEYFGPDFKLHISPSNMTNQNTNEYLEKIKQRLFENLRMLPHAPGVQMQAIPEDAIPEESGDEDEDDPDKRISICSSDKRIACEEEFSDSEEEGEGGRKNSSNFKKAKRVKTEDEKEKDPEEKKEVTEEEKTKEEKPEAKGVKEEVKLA
Description: Ability to inhibit recombinant human histone deacetylase 1 (HDAC-1).

[4] = test system: PANC-1; assay: […] inhibitory activity against human PANC-1 pancreatic tumor; Active; assay type: functional
[5] = Compound was tested for tumor growth inhibition relative to control; assay type: functional
[6] = test system: COLO 205; assay: In vivo inhibitory activity against human COLO 205 tumor; Active
[7] = test system: SW48; assay: In vivo inhibitory activity against human SW48 colon tumor; Active
[8] = test system: DU-145; assay: In vivo inhibitory activity against human DU145 prostate tumor; Active; settings: Prostate gland
[9] = test system: A549; assay: In vivo inhibitory activity against human A549 non-small cell lung tumor; Active

Row | SMILES | IC50 [1] [µM] | EC50 [2] [µM] | IC50 [3] [µM] | Activity [4] | TGI [5] [%] | Activity [6] | Activity [7] | Activity [8] | Activity [9]
1 | COc1ccc(-c2ccc(C(=O)CCCCCCC(=O)Nc3ccccc3N)cc2)cc1OC | 4 | 3 | 4 |  |  |  |  |  | 
2 | Nc1ccccc1NC(=O)CCCCCn1nnc2ccccc2c1=O | 10 | 10 | 8 |  |  |  |  |  | 
3 | Nc1ccccc1NC(=O)CCCCCCC(=O)c1ccc(-c2ccccc2)nc1 | 5 | 5 | 3 | Active |  | Active | Active | Active | Active
4 | Nc1ccccc1NC(=O)CCCCCn1cnc2ccccc2c1=O | 10 |  |  |  |  |  |  |  | 
5 | Nc1ccccc1NC(=O)CCCCCn1c(=O)[nH]c2ccccc2c1=O | 5 | 10 | 4 |  |  |  |  |  | 
6 | Nc1ccccc1NC(=O)CCCCCN1C(=O)c2cc(O)c(CN3CCCCC3)cc2C1=O | 31 |  |  |  |  |  |  |  | 
7 | Nc1ccccc1NC(=O)CCCCCN1Cc2ccccc2C1=O | 15 | 99 |  |  |  |  |  |  | 
8 | Nc1ccccc1NC(=O)CCCCCCC(=O)c1ccc(-c2ccccc2)cc1 | 7 | 10 | 2 | Active | 53 | Active | Active | Active | Active
9 | Nc1ccccc1NC(=O)CCCCCCC(=O)c1ccc2ccccc2c1 | 9 | 25 | 2 |  |  |  |  |  | 
10 | Nc1ccccc1NC(=O)c1ccc(CNC(=O)OCc2cccnc2)cc1 [ENTINOSTAT] | 0.5 |  |  |  |  |  |  |  | 
11 | Nc1ccccc1NC(=O)CCCCCCC(=O)c1ccccc1 | > 25 | 25 | 9 |  |  |  |  |  | 
12 | Cn1c(=O)n(CCCCCC(=O)Nc2ccccc2N)c(=O)c2ccccc21 | 5 |  | 4 |  |  |  |  |  | 
13 | Nc1ccccc1NC(=O)CCCCCCC(=O)c1ccc(-c2cccnc2)cc1 | 19 | 20 | 10 |  |  |  |  |  | 
14 | Nc1ccccc1NC(=O)CCCCCN1C(=O)c2cc(O)c(CN3CCOCC3)cc2C1=O | 12 |  | 4 |  |  |  |  |  | 
15 | Nc1ccccc1NC(=O)CCCCCCC(=O)c1ccc(Br)cc1 | 20 | 15 | 6 |  |  |  |  |  | 
16 | COc1ccc(C(=O)CCCCCCC(=O)Nc2ccccc2N)cc1 | 21 | 5 | 5 |  |  |  |  |  | 
17 | Nc1ccccc1NC(=O)CCCCCCC(=O)c1cccc(-c2ccccc2)c1 | 12 | 25 | 1 |  |  |  |  |  | 

Now from value to compound, other results behind:

Row | IC50 [1] [µM] | EC50 [2] [µM] | IC50 [3] [µM] | SMILES | Activity [4] | TGI [5] [%] | Activity [6] | Activity [7] | Activity [8] | Activity [9]
18 | 24 | 5 | 2 | Nc1ccccc1NC(=O)CCCCCN1C(=O)c2ccccc2C1=O |  |  |  |  |  | 
19 | 6 | 10 |  | Nc1ccccc1NC(=O)CCCCCN1C(=O)c2cccc3c(Br)ccc(c23)C1=O |  |  |  |  |  | 
20 | 0.9 |  |  | Nc1ccccc1NC(=O)CCCCCN1C(=O)c2cccc3cc(O)cc(c23)C1=O | Active | 28 | Active | Active | Active | Active
21 | 1 | 2 | 0.5 | Nc1ccccc1NC(=O)CCCCCN1C(=O)c2cccc3c(CN4CCOCC4)c(O)cc(c23)C1=O | Active |  | Active | Active | Active | Active
22 | 6 | 3 |  | Cc1ccc2c(c1)C(=O)N(CCCCCC(=O)Nc1ccccc1N)C2=O |  |  |  |  |  | 
23 | 11 | 10 |  | Nc1ccccc1NC(=O)CCCCCN1C(=O)c2ccc(O)cc2C1=O |  |  |  |  |  | 
24 | 2 | 3 | 3 | Nc1ccccc1NC(=O)CCCCCN1C(=O)c2cccc3cccc(c23)C1=O | Active |  | Active | Active | Active | Active
25 | > 47 | > 25 |  | Nc1ccccc1NC(=O)CCCCCN1C(=O)c2cccnc2C1=O |  |  |  |  |  | 
26 | 1 | 1 |  | Nc1ccccc1NC(=O)CCCCCN1C(=O)c2cccc3c(CN4CCCCC4)c(O)cc(c23)C1=O |  |  |  |  |  | 
